# According to patent publication US20150313928A1, “NEW APPLICATION OF CATALPOL” (SUZHOU YOUSEEN NEW PHARMACY DEVELOPMENT CO., LTD., priority 2012, published 2015):
# Experiments:
# [1] = tested on: mice in the hyperthyroidism model group; test: Measurement of heart indexes of the mice; type: in vivo, Kunming mice; design: HWI / LVWI: unit not given here; conditions: for HWI: heart weight index = HW/BW; for HWI / LVWI: 20 days; for heart weight index / left ventricular index: in words, compared with the model group; for heart weight index: catalpol medium and high dosage and methimazole significant; for left ventricular index: catalpol medium and high dosage significant (P<0.01); for LVWI: left ventricular weight index = LVW/BW
# Description: (§1) The successfully modeled mice are randomized into 5 groups (10 mice per group), that is, the hyperthyroidism model group, the catalpol low dosage group, the catalpol medium group, the catalpol high dosage group, and the methimazole group, plus the blank group (10 mice).
# (§2) The catalpol low dosage group is administered 30mg/kg catalpol, the catalpol medium dosage group 60 mg/kg, the catalpol high group 90 mg/kg and the methimazole group 7.5 mg/kg methimazole, all by gastric infusion, while the blank group and the hyperthyroidism group are administered equal amount of distilled water, once per day, for 20 consecutive days. With the exception of the blank group, each mouse in each group continues to be administered 350 ug/kg levothyroxine sodium by means of subcutaneous injection each day.
# A mouse is sacrificed its heart instantly taken out for measurement of its heart weight (HW) and (left ventricular weight (LVW). Heart weight index (HWI=HW/BW) and left ventricular weight index (LVWI=LVW/BW) is calculated at conclusion the experiment.
# [2] = tested on: mice in the hyperthyroidism model group; test: Measurement of the level of thyroid hormone of serum (radioimmunoassay); type: in vivo, Kunming mice; conditions: for T3 level in the serum / FT3 level in the serum / FT4 level in the serum / T4 level in the serum: in words, compared with the model group; for T3 level in the serum: catalpol 30, 60, 90 mg/kg groups, methimazole 7.5 mg/kg, P<0.05; for FT3 level in the serum: catalpol low P<0.01, medium, high and methimazole P<0.05; for FT4 level in the serum: only catalpol low dosage significant (P<0.05); for T4 level in the serum: only methimazole difference significant (P<0.05); for FT3 / FT4 / T3 / T4: serum, 20 days
# Description: as §1, §2
# A mouse is suspended of food without suspension of water for 12 hours subsequent to the last medication, and blood is taken from its eye ball, put in centrifugation for 15 minutes at 3500 r/min, serum is pumped out for measurement of T3, T4, FT3, and FT4 by means of radioimmunoassay. For detailed operations, see the instruction manual.
# [3] = tested on: mice in the hyperthyroidism model group; test: Measurement of heart rate of the mice (electrocardiogram); type: in vivo, Kunming mice
# Description: The successfully modeled mice are randomized into 5 groups (10 mice per group), that is, the hyperthyroidism model group, the catalpol low dosage group, the catalpol medium group, the catalpol high dosage group, and the methimazole group, plus the blank group (10 mice). The catalpol low dosage group is administered 30mg/kg catalpol, the catalpol medium dosage group 60 mg/kg, the catalpol high group 90 mg/kg and the methimazole group 7.5 mg/kg methimazole, all by gastric infusion, while the blank group and the hyperthyroidism group are administered equal amount of distilled water, once per day, for 20 consecutive days. With the exception of the blank group, each mouse in each group continues to be administered 350 ug/kg levothyroxine sodium by means of subcutaneous injection each day. All the mice are suspended of food without suspension of water for 12 hours one day prior to the last medication and heart rate is measured 3 hours later. Heart rate (HR) is calculated via the electrocardiogram, statistics is then conducted, and differences are compared.
# [4] = tested on: mice in the hyperthyroidism model group; test: Measurement of mice weight change; type: in vivo, Kunming mice; conditions: for BW2 − BW1: body weight difference; for BW2 − BW1 / BW2: 20 days; for body weight increase: in words, compared with the model group, catalpol groups, methimazole 7.5 mg/kg; for BW2: post-treatment body weight, levothyroxine sodium 350 ug/kg s.c. daily; for BW1: pre-treatment body weight
# Description: as §1, §2
# A mouse is suspended of food without suspension of water for 12 hours starting at 8 o'clock one day prior to the first medication, and all the mice are taken of their body weight (BW) the next day, that is, the pre-treatment body weight (BW1); the mouse is suspended of food without suspension of water for 12 hours starting at 8 o'clock of the day of the last medication, its body weight (BW) is taken the next day, that is, the post-treatment body weight (BW2); the difference of the pre-treatment body weight and the post-treatment body weight is calculated to compare the change of the body weight of the mice among each group.
# [5] = tested on: mice in the hyperthyroidism model group; test: Measurement of the oxygen consumption of the mice; type: in vivo, Kunming mice; conditions: for Decrease in oxygen content: measured two days prior to the last medication, 21% minus residual oxygen; for oxygen consumption: in words, compared with the model group, catalpol low (30 mg/kg) and high (90 mg/kg) dosage groups, methimazole 7.5 mg/kg
# Description: as §1, §2
# Oxygen consumption is measured two days prior to the last medication. The specific method is: take a model CY-3 digital oxygen meter and install therein an oxygen electrode. Connect, perform zero adjustment, and repeat until the instrument is stable for use. Take a 500 ml bottle, fix its outward connecting pipe with a rubber cover, seal with Vaseline. The rubber cover is connected via a tee, and a shift in the tee is selectable for connection or disconnection with outer space. A mouse is placed inside the bottle, and the mouth of the bottle is instantly covered with a wood plug to shut off air from the inner flask. The filtering flask is horizontally placed on the experiment table, and timing of 20 minutes After 20 minute, 10 ml air from the bottle was taken out by a injector and rapidly injected into a connector of the CY-3 type digital oxygen analyzer with the oxygen analyzer indicating oxygen content of the pumped in air. The data, when stable, is recorded as the residual oxygen value, then the oxygen consumption (20 min, 10 ml)=21%—residual oxygen value (%). (21% oxygen in air).
# [6] = tested on: mice in the hyperthyroidism model group; test: Observation of appearance and behavior of the mice; type: in vivo, Kunming mice; conditions: in words, as compared with the model group; daily observation
# Description: The successfully modeled mice are randomized into 5 groups (10 mice per group), that is, the hyperthyroidism model group, the catalpol low dosage group, the catalpol medium group, the catalpol high dosage group, and the methimazole group, plus the blank group (10 mice). The catalpol low dosage group is administered 30mg/kg catalpol, the catalpol medium dosage group 60 mg/kg, the catalpol high group 90 mg/kg and the methimazole group 7.5 mg/kg methimazole, all by gastric infusion, while the blank group and the hyperthyroidism group are administered equal amount of distilled water, once per day, for 20 consecutive days. With the exception of the blank group, each mouse in each group continues to be administered 350 ug/kg levothyroxine sodium by means of subcutaneous injection each day. Animals were observed and recorded daily for their general status, including mental status, color and hair change, appearance and behavior. In addition, every two days, record is taken of their food intake.
# [7] = tested on: Kunming mice; test: Animal model preparation: injection of levothyroxine sodium (heart rate, serum T3/T4, heart weight index); type: in vivo; conditions: levothyroxine sodium 350 μg/kg subcutaneous injection, model group
# Description: The animals are placed indoor for milieu adaptation 2 days prior to the experiment. 20 Kunming mice are randomly selected and put in the blank group, administered normal saline by subcutaneous injection, while the other mice are administered levothyroxine sodium 350 μg/kg by subcutaneous injection, with a daily dosage of 10 ml/kg, for 7 consecutive days.
# After the third hour at the sixth day of medication, 10 mice (half male and half female) are randomly selected respectively from the blank group and the model group for measurement of heart rate. Under anesthesia, the mice are taken electrocardiogram for calculation of their heart rate. Statistical analysis is then conducted for comparison of differences.
# In the case of substantial acceleration of its heart rate, a mouse is suspended of food without suspension of water for 12 hours starting at 8 o'clock of the last day (the seventh day) of medication. Each mouse in each group is taken of its weight at 8 o'clock the next morning. Blood is taken from its eye ball and subsequent to coagulation, put in centrifugation for 15 minutes at 3500 r/min, for measurement of T3 and T4 by means of radioimmunoas say. Each mouse is sacrificed and its heart is taken out for measurement of its heart weight and left ventricular weight. At conclusion of the experiment, the heart weight index and left ventricular weight index is calculated. [Heart weight index HWI=heart weight (HW)/body weight (BW); left ventricular weight index LVWI=left ventricular weight (LVW)/ body weight (BW)]
# If the levels of the above indexes are substantially elevated, the model is regarded as successful.
# [8] = catalpol 30 mg/kg gastric infusion once per day
# [9] = catalpol 60 mg/kg gastric infusion once per day
# [10] = catalpol 90 mg/kg gastric infusion once per day
# [11] = in words, compared with the model group, catalpol 30, 60, 90 mg/kg groups, methimazole 7.5 mg/kg
# [12] = methimazole 7.5 mg/kg gastric infusion once per day
compound,measurement,setting,value
OC[C@H]1O[C@@H](O[C@@H]2OC=C[C@H]3[C@H](O)[C@@H]4O[C@]4(CO)[C@@H]23)[C@H](O)[C@@H](O)[C@@H]1O [Catalpol],HWI,[1]; [8],5.912
same,HWI,[1]; [9],5.650
same,HWI,[1]; [10],5.58
same,heart weight index,[1],decreased heart weight index to some extent
same,left ventricular index,[1],decreased left ventricular index to some extent
same,LVWI,[1]; [8],1.786
same,LVWI,[1]; [9],1.625
same,LVWI,[1]; [10],1.582
same,T3 level in the serum,[2],decreased T3 level in the serum to some extent
same,FT3 level in the serum,[2],decreased FT3 level in the serum to some extent
same,FT4 level in the serum,[2],decreased FT4 level in the serum to some extent
same,T4 level in the serum,[2],decreased T4 level in the serum to some extent
same,FT3,[2]; [8],7.49 ng/mL
same,FT4,[2]; [8],22.87 ng/mL
same,T3,[2]; [8],3.84 ng/mL
same,T4,[2]; [8],181.02 ng/mL
same,FT3,[2]; [9],8.22 ng/mL
same,FT4,[2]; [9],23.77 ng/mL
same,T3,[2]; [9],3.52 ng/mL
same,T4,[2]; [9],179.90 ng/mL
same,FT3,[2]; [10],7.56 ng/mL
same,FT4,[2]; [10],24.02 ng/mL
same,T3,[2]; [10],3.50 ng/mL
same,T4,[2]; [10],178.50 ng/mL
same,Heart rate,"[3]; catalpol 30 mg/kg gastric infusion once per day, 20 days, levothyroxine sodium 350 ug/kg s.c. daily",507.56 times/min
same,Heart rate,"[3]; catalpol 60 mg/kg gastric infusion once per day, 20 days, levothyroxine sodium 350 ug/kg s.c. daily",538.75 times/min
same,Heart rate,"[3]; catalpol 90 mg/kg gastric infusion once per day, 20 days, levothyroxine sodium 350 ug/kg s.c. daily",529.63 times/min
same,Heart rate,[3]; [11],decreased heart rate to some extent
same,BW2 − BW1,[4]; [8],9.00 g
same,BW2 − BW1,[4]; [9],10.10 g
same,BW2 − BW1,[4]; [10],10.15 g
same,body weight increase,[4],more body weight increase to some extent
same,BW2,[4]; [8],36.40 g
same,BW2,[4]; [9],37.80 g
same,BW2,[4]; [10],37.75 g
same,BW1,[4]; catalpol 30 mg/kg group,27.40 g
same,BW1,[4]; catalpol 60 mg/kg group,27.70 g
same,BW1,[4]; catalpol 90 mg/kg group,27.60 g
same,Decrease in oxygen content,[5]; catalpol 30.0 mg/kg gastric infusion once per day,"8.88 %, 20 min"
same,Decrease in oxygen content,[5]; catalpol 60.0 mg/kg gastric infusion once per day,"9.03 %, 20 min"
same,Decrease in oxygen content,[5]; [10],"8.81 %, 20 min"
same,oxygen consumption,[5],significantly decreased oxygen consumption
same,appearance and behavior of the mice,[6],"quieter and have reduced symptoms of dysphoria, excitability, and drier and darker hair"
N[C@@H](Cc1cc(I)c(Oc2cc(I)c(O)c(I)c2)c(I)c1)C(=O)O [levothyroxine sodium],HWI,"[7]; heart weight index = HW/BW, 7 day",5.642 mg/g
same,LVWI,"[7]; left ventricular weight index = LVW/BW, 7 day",3.735 mg/g
same,HR,"[7]; 6 day, mean ± S",674.42 times/min
same,T3,"[7]; serum, 7 day, mean ± S",2.89 ng/mL
same,T4,"[7]; serum, 7 day, mean ± S",311.43 ng/mL
"Cn1cc[nH]c1=S [methimazole, reference compound]",HWI,[1]; [12],5.784
same,heart weight index,[1],decreased heart weight index to some extent
same,left ventricular index,[1],decreased left ventricular index to some extent
same,LVWI,[1]; [12],1.560
same,T3 level in the serum,[2],decreased T3 level in the serum to some extent
same,FT3 level in the serum,[2],decreased FT3 level in the serum to some extent
same,FT4 level in the serum,[2],decreased FT4 level in the serum to some extent
same,T4 level in the serum,[2],decreased T4 level in the serum to some extent
same,FT3,[2]; [12],8.80 ng/mL
same,FT4,[2]; [12],26.85 ng/mL
same,T3,[2]; [12],3.64 ng/mL
same,T4,[2]; [12],145.61 ng/mL
same,Heart rate,[3]; [11],decreased heart rate to some extent
same,Heart rate,"[3]; methimazole 7.5 mg/kg gastric infusion once per day, 20 days, levothyroxine sodium 350 ug/kg s.c. daily",474.02 times/min
same,BW2 − BW1,[4]; [12],9.00 g
same,body weight increase,[4],more body weight increase to some extent
same,BW2,[4]; [12],36.30 g
same,BW1,[4]; methimazole 7.5 mg/kg group,27.30 g
same,oxygen consumption,[5],significantly decreased oxygen consumption
same,Decrease in oxygen content,[5]; [12],"8.53 %, 20 min"
